How the values were obtained:
EGFR wildtype (WT) = EGFR wildtype (WT) (Homo sapiens, UniProt P00533); test: Biochemical EGFR kinase assay (Lance Ultra TR-FRET), wildtype; conditions: Km ATP; read-out: IC50 WT, Km ATP
How it was run: (§1)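 In this biochemical assay, phosphorylation after a one-hour room-temperature reaction was detected with europium-labelled anti-phosphopeptide antibody at 2 nM final concentration.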

EGFR del19/T790M/C797S = EGFR del19/T790M/C797S (Homo sapiens, UniProt P00533, C797S/DEL746-750/T790M); test: Biochemical EGFR kinase assay (Lance Ultra TR-FRET), triple mutant del19/T790M/C797S; conditions: Km ATP; read-out: IC50 del19/T790M/C797S, Km ATP
Sequence of EGFR del19/T790M/C797S (P00533 with tags, fused parts or gaps DEL746-750/T790M/C797S): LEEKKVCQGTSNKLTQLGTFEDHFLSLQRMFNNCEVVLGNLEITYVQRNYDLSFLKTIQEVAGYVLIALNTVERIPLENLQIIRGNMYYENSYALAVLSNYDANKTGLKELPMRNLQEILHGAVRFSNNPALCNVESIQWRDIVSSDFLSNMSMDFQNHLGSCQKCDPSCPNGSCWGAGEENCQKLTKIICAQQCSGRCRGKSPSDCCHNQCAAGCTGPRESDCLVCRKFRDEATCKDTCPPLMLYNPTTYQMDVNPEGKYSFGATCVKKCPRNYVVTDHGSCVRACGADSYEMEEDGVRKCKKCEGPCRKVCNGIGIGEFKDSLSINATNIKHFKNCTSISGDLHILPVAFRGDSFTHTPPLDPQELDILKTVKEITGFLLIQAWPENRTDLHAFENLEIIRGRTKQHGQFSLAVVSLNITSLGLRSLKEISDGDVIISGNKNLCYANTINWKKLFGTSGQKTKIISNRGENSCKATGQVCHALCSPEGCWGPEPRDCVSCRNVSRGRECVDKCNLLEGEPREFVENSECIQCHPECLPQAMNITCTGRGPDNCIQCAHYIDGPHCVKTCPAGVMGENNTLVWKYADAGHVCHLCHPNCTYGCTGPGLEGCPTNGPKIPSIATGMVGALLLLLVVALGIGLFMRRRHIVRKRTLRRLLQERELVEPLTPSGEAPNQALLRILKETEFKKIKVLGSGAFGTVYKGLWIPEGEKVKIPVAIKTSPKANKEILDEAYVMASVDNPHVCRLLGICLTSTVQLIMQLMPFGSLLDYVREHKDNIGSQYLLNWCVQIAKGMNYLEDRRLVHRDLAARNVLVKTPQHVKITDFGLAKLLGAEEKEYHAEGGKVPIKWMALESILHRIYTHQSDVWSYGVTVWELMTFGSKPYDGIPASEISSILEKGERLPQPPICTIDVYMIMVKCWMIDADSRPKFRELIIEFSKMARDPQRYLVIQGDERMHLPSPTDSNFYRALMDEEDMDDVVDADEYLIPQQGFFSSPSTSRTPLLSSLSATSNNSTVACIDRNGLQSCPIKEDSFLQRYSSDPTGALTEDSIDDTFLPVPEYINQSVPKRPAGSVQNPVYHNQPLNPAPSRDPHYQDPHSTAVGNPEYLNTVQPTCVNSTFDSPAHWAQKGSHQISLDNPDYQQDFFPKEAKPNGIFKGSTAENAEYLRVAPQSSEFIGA
How it was run: as §1

EGFR L858R/T790M/C797S = EGFR L858R/T790M/C797S (Homo sapiens, UniProt P00533, C797S/L858R/T790M); test: Biochemical EGFR kinase assay (Lance Ultra TR-FRET), triple mutant L858R/T790M/C797S; conditions: Km ATP; read-out: IC50 L858R/T790M/C797S, Km ATP
Sequence of EGFR L858R/T790M/C797S (P00533 25-1210 T790M/C797S/L858R): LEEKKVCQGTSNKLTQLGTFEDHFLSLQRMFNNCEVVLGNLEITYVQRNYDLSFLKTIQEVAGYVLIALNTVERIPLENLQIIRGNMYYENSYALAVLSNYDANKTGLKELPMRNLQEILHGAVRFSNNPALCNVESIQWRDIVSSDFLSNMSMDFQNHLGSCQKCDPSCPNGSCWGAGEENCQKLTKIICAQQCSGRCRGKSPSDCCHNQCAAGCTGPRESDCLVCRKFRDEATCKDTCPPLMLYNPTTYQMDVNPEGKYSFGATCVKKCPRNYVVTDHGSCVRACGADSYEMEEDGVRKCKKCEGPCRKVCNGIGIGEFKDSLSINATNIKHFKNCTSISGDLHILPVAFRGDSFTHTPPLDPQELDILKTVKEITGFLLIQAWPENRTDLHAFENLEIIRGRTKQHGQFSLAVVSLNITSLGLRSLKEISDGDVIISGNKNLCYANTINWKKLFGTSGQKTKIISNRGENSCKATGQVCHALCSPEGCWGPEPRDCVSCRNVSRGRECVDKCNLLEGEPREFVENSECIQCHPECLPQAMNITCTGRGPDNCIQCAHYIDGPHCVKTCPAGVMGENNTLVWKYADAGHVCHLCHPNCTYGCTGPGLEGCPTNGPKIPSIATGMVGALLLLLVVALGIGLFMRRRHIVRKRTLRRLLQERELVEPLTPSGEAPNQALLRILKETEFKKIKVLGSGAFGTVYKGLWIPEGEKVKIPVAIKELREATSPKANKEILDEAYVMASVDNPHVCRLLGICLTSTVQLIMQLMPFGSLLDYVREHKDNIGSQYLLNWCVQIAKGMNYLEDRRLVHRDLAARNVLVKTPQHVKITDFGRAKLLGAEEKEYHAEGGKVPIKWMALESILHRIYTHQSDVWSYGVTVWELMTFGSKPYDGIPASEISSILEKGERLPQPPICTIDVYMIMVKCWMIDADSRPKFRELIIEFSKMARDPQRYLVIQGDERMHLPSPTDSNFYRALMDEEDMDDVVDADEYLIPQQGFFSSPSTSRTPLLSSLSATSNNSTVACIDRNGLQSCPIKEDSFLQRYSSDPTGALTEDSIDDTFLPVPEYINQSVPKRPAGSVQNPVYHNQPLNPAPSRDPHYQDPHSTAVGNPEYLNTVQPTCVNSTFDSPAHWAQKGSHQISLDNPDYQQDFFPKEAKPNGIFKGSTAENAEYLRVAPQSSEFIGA
How it was run: as §1

EGFR del19/C797S = EGFR del19/C797S (Homo sapiens, UniProt P00533, C797S/DEL746-750); test: Biochemical EGFR kinase assay (Lance Ultra TR-FRET), double mutant del19/C797S; conditions: Km ATP; read-out: IC50 del19/C797S, Km ATP
Sequence of EGFR del19/C797S (P00533 with tags, fused parts or gaps DEL746-750/C797S): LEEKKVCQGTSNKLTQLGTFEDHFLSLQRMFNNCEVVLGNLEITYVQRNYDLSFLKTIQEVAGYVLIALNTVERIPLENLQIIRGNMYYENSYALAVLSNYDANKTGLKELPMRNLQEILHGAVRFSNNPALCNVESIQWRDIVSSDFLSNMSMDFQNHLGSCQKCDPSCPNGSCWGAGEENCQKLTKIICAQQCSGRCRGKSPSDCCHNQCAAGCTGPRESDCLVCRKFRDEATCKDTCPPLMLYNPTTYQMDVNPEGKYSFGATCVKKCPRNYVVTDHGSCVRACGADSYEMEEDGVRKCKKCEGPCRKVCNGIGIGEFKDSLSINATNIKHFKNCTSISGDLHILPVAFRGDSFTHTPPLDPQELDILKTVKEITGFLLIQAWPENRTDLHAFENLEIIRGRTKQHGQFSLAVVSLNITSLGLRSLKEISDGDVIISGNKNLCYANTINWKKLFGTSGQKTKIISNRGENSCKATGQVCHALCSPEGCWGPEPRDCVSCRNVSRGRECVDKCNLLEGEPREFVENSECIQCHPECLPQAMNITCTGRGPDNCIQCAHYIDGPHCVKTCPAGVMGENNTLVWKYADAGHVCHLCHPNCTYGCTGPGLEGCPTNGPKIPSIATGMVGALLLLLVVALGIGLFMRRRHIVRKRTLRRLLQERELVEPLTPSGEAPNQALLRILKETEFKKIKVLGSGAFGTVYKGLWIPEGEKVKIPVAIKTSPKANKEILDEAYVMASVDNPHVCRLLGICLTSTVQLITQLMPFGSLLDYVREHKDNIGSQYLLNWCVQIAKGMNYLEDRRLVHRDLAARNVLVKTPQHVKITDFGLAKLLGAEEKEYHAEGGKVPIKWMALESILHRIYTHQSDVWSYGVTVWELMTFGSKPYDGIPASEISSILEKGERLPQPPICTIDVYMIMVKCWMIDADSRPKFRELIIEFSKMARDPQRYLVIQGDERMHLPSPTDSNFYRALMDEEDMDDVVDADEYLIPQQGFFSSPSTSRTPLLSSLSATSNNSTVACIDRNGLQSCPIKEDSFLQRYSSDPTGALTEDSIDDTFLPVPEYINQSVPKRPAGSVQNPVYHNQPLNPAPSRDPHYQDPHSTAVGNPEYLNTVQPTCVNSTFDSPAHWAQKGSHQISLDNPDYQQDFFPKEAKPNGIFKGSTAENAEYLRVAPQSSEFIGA
How it was run: as §1

EGFR L858R/C797S = EGFR L858R/C797S (Homo sapiens, UniProt P00533, C797S/L858R); test: Biochemical EGFR kinase assay (Lance Ultra TR-FRET), double mutant L858R/C797S; conditions: Km ATP; read-out: IC50 L858R/C797S, Km ATP
Sequence of EGFR L858R/C797S (P00533 25-1210 C797S/L858R): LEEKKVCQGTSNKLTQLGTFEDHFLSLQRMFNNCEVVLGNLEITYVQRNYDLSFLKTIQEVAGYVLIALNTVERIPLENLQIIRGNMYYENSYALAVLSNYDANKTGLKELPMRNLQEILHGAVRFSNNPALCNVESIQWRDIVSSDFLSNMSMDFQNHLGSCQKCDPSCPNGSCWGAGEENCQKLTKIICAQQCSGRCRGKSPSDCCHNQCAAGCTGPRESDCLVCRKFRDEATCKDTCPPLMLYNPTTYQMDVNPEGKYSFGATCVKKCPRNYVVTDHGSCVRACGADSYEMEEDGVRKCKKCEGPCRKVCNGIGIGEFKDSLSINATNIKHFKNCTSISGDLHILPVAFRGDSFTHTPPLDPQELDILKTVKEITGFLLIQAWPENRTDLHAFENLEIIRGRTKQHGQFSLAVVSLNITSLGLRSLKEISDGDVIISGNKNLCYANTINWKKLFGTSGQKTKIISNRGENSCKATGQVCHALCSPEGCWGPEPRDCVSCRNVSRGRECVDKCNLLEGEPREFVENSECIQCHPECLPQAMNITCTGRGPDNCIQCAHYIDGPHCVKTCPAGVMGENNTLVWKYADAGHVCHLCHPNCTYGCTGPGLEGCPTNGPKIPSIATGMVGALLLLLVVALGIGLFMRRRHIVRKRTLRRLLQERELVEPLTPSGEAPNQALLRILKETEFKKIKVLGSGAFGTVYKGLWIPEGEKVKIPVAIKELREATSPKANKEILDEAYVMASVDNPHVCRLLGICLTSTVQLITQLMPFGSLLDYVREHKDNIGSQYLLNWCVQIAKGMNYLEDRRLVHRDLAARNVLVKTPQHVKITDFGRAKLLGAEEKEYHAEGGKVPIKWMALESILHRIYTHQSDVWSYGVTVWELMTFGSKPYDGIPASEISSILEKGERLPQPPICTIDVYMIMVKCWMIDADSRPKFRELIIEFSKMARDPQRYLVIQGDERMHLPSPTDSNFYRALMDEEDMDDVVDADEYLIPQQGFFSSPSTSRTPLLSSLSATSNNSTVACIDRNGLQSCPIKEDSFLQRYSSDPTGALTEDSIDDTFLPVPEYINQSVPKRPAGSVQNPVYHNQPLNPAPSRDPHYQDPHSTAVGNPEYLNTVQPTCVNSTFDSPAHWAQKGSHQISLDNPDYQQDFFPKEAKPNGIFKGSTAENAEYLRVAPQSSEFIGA
How it was run: as §1

Structure (SMILES)	IC50 (EGFR wildtype (WT)) [nM]	IC50 (EGFR del19/T790M/C797S) [nM]	IC50 (EGFR L858R/T790M/C797S) [nM]	IC50 (EGFR del19/C797S) [nM]	IC50 (EGFR L858R/C797S) [nM]
CC(C)Nc1nc(Nc2ccnc(-c3cnn(S(=O)(=O)C4CC4)c3)c2)ncc1-c1ccn(C(F)F)n1 [Example 363, N^2-(2-(1-(Cyclopropylsulfonyl)-1H-pyrazol-4-yl)pyridin-4-yl)-5-(1-(difluoromethyl)-1H-pyrazol-3-yl)-N^4-isopropylpyrimidine-2,4-diamine]	4270	3.4	4.3	404	665
O=S(=O)(C1CC1)n1cc(-c2cc(Nc3ncc(-c4ccn(CC(F)(F)F)n4)c(N[C@H]4CC[C@@H](F)CC4)n3)ccn2)cn1 [Example 366, N^2-(2-(1-(Cyclopropylsulfonyl)-1H-pyrazol-4-yl)pyridin-4-yl)-N^4-((1s,4s)-4-fluorocyclohexyl)-5-(1-(2,2,2-trifluoroethyl)-1H-pyrazol-3-yl)pyrimidine-2,4-diamine]	3320	8.5	3.1	249	127
O=S(=O)(C1CC1)n1cc(-c2cc(Nc3ncc(-c4ccn(CCC(F)(F)F)n4)c(N[C@H]4CC[C@@H](F)CC4)n3)ccn2)cn1 [Example 367, N^2-(2-(1-(Cyclopropylsulfonyl)-1H-pyrazol-4-yl)pyridin-4-yl)-N^4-((1s,4s)-4-fluorocyclohexyl)-5-(1-(3,3,3-trifluoropropyl)-1H-pyrazol-3-yl)pyrimidine-2,4-diamine]	5000	17.1	7.2	391	251
Cn1nc(-c2cnc(Nc3ccnc(-c4cnn(S(=O)(=O)C5CC5)c4)c3)nc2N[C@H]2CC[C@@H](F)CC2)cc1C(F)(F)F [Example 371, N^2-(2-(1-(Cyclopropylsulfonyl)-1H-pyrazol-4-yl)pyridin-4-yl)-N^4-((1s,4s)-4-fluorocyclohexyl)-5-(1-methyl-5-(trifluoromethyl)-1H-pyrazol-3-yl)pyrimidine-2,4-diamine]	1980	0.9	1.8	38.9	91
C[C@]1(O)CC[C@@H](Nc2cc(Nc3ccnc(-c4cnn(S(=O)(=O)C5CC5)c4)n3)nnc2-c2ccn(CC(F)(F)F)n2)CC1 [Example 374, (1s,4s)-4-((6-((2-(1-(Cyclopropylsulfonyl)-1H-pyrazol-4-yl)pyrimidin-4-yl)amino)-3-(1-(2,2,2-trifluoroethyl)-1H-pyrazol-3-yl)pyridazin-4-yl)amino)-1-methylcyclohexan-1-ol]	1050	0.3	0.6	241	25.9
Cc1nn(CC(F)(F)F)cc1-c1nccc(Nc2cc(N[C@H]3CC[C@@](C)(O)CC3)c(-c3ccn(C(F)F)n3)nn2)n1 [Example 375, (1s,4s)-4-((3-(1-(Difluoromethyl)-1H-pyrazol-3-yl)-6-((2-(3-methyl-1-(2,2,2-trifluoroethyl)-1H-pyrazol-4-yl)pyrimidin-4-yl)amino)pyridazin-4-yl)amino)-1-methylcyclohexan-1-ol]	2290	16.4	11.1	1150	51.4

These reach a lower IC50 (EGFR wildtype (WT)). Values come first.

IC50 (EGFR wildtype (WT)) [nM]	IC50 (EGFR del19/T790M/C797S) [nM]	IC50 (EGFR L858R/T790M/C797S) [nM]	IC50 (EGFR del19/C797S) [nM]	IC50 (EGFR L858R/C797S) [nM]	Structure (SMILES)
714	0.5	3	663	226	Cn1nc(-c2nnc(Nc3ccnc(-c4cnn(S(=O)(=O)C5CC5)c4)n3)cc2N[C@H]2CC[C@@](C)(O)CC2)cc1C(F)(F)F [Example 373, (1s,4s)-4-((6-((2-(1-(Cyclopropylsulfonyl)-1H-pyrazol-4-yl)pyrimidin-4-yl)amino)-3-(1-methyl-5-(trifluoromethyl)-1H-pyrazol-3-yl)pyridazin-4-yl)amino)-1-methylcyclohexan-1-ol]
685	0.5	1.1	14.2	20	Cn1nc(-c2cnc(Nc3ccnc(-c4cnn(CC(F)F)c4)c3)nc2N[C@H]2CC[C@@](C)(O)CC2)cc1C(F)(F)F [Example 361, (1s,4s)-4-((2-((2-(1-(2,2-Difluoroethyl)-1H-pyrazol-4-yl)pyridin-4-yl)amino)-5-(1-methyl-5-(trifluoromethyl)-1H-pyrazol-3-yl)pyrimidin-4-yl)amino)-1-methylcyclohexan-1-ol]
159	0.2	0.1	12.8	5	C[C@]1(O)CC[C@@H](Nc2nc(Nc3ccnc(-c4cnn(CC(F)F)c4)c3)ncc2-c2ccn(C(F)F)n2)CC1 [Example 362, (1s,4s)-4-((2-((2-(1-(2,2-Difluoroethyl)-1H-pyrazol-4-yl)pyridin-4-yl)amino)-5-(1-(difluoromethyl)-1H-pyrazol-3-yl)pyrimidin-4-yl)amino)-1-methylcyclohexan-1-ol]
147	3.4	1.2	17.4	8.3	Cc1nn(CC(F)(F)F)cc1-c1cc(Nc2ncc(-c3ccn(CC(F)(F)F)n3)c(N[C@H]3CC[C@@](C)(O)CC3)n2)ccn1 [Example 370, (1s,4s)-1-Methyl-4-((2-((2-(3-methyl-1-(2,2,2-trifluoroethyl)-1H-pyrazol-4-yl)pyridin-4-yl)amino)-5-(1-(2,2,2-trifluoroethyl)-1H-pyrazol-3-yl)pyrimidin-4-yl)amino)cyclohexan-1-ol]
108	0.6	0.2	6.9	3.7	C[C@]1(O)CC[C@@H](Nc2cc(Nc3ccnc(-c4cnn(S(=O)(=O)C5CC5)c4)n3)nnc2-c2ccn(C(F)F)n2)CC1 [Example 372, (1s,4s)-4-((6-((2-(1-(Cyclopropylsulfonyl)-1H-pyrazol-4-yl)pyrimidin-4-yl)amino)-3-(1-(difluoromethyl)-1H-pyrazol-3-yl)pyridazin-4-yl)amino)-1-methylcyclohexan-1-ol]
72.7	3.1	1	8.1	10.1	Cc1nn(CC(F)(F)F)cc1-c1cc(Nc2ncc(-c3cc(C(F)(F)F)n(C)n3)c(N[C@H]3CC[C@@](C)(O)CC3)n2)ccn1 [Example 369, (1s,4s)-1-Methyl-4-((2-((2-(3-methyl-1-(2,2,2-trifluoroethyl)-1H-pyrazol-4-yl)pyridin-4-yl)amino)-5-(1-methyl-5-(trifluoromethyl)-1H-pyrazol-3-yl)pyrimidin-4-yl)amino)cyclohexan-1-ol]
55.6	0.4	0.8	7.9	9	O=S(=O)(C1CC1)n1cc(-c2cc(Nc3ncc(-c4ccn(C(F)F)n4)c(N[C@H]4CC[C@@H](CO)CC4)n3)ccn2)cn1 [Example 364, ((1s,4s)-4-((2-((2-(1-(Cyclopropylsulfonyl)-1H-pyrazol-4-yl)pyridin-4-yl)amino)-5-(1-(difluoromethyl)-1H-pyrazol-3-yl)pyrimidin-4-yl)amino)cyclohexyl)methanol]
33.6	1.9	0.9	12.6	10.7	Cc1nn(CC(F)(F)F)cc1-c1cc(Nc2ncc(-c3ccn(C(F)F)n3)c(N[C@H]3CC[C@@](C)(O)CC3)n2)ccn1 [Example 368, (1s,4s)-4-((5-(1-(Difluoromethyl)-1H-pyrazol-3-yl)-2-((2-(3-methyl-1-(2,2,2-trifluoroethyl)-1H-pyrazol-4-yl)pyridin-4-yl)amino)pyrimidin-4-yl)amino)-1-methylcyclohexan-1-ol]

From patent US12258327B2, “5-membered heteroaryl-containing aminopyridine compounds as EGFR inhibitors” (YUHAN CORPORATION, priority 2021, dated 2025)
